In ChEMBL document CHEMBL1128323, “Antifungal agents. 9. 3-Aryl-4-[alpha-(1H-imidazol-1-yl)arylmethyl]pyrroles: a new class of potent anti-Candida agents” (1995):
≈ marks a conversion by molar mass, not a printed value.

How the values were obtained:
Format in all cases: functional
[1] = system: Candida albicans; assay: Inhibitory activity against Candida albicans (40 clinical isolates), determined at pH-5.8
[2] = system: Candida; assay: 90% inhibitory activity against Candida. species (40 clinical isolates) determined at pH-7.2
[3] = system: Candida albicans; assay: Percent resistance against Candida albicans (40 clinical isolates) at 256 micro g/mL (pH=5.8), activity is expressed as R%.
[4] = system: Candida albicans; assay: Inhibitory activity against the Candida albicans (40 clinical isolates), determined at pH-5.8
[5] = system: Candida albicans; assay: Inhibitory activity against Candida albicans (40 clinical isolates), determined at pH-7.2
[6] = system: Candida; assay: 50% inhibitory activity against the Candida. species (40 clinical isolates) was determined at pH-7.2
[7] = system: Candida; assay: Resistance against all Candida. species (40 clinical isolates) at 256 micro g/mL (pH=5.8). Activity is expressed as R%.
[8] = system: Candida; assay: Inhibitory activity against Candida. species (40 clinical isolates), determined at pH-5.8
[9] = system: Candida albicans; assay: Resistance against Candida. albicans (40 clinical isolates) at 256 ug/mL (pH=7.2), activity is expressed as R%.
[10] = system: Candida; assay: Percent resistance against all Candida. species (40 clinical isolates) at 256 micro g/mL (pH=7.2), activity is expressed as R%.
[11] = system: Candida albicans; assay: 50% inhibitory activity against Candida albicans (40 clinical isolates) determined at pH-5.8
[12] = system: Candida albicans; assay: Inhibitory activity against the Candida albicans (40 clinical isolates), determined at pH-7.2
[13] = system: Candida; assay: Inhibitory activity against Candida. species. (40 clinical isolates), determined at pH-5.8
[14] = system: Candida; assay: Inhibitory activity against Candida. species. (40 clinical isolates), determined at pH-7.2
[15] = system: Candida albicans; assay: 50% inhibitory activity against Candida albicans (40 clinical isolates) determined at pH-7.2
[16] = Candida albicans, read-out: MIC50

Structure (SMILES) | MIC [1] [mg/L] | MIC90 [2] [mg/L] | R [3] [%] | MIC90 [4] [mg/L] | MIC [5] [mg/L] | MIC50 [6] [mg/L] | R [7] [%] | MIC50 [8] [mg/L] | MIC90 [8] [mg/L] | R [9] [%] | R [10] [%] | MIC50 [11] [mg/L] | MIC90 [12] [mg/L] | MIC [13] [mg/L] | MIC [14] [mg/L] | MIC50 [15, 16] [mg/L] | MIC50 [15] [mg/L]
Fc1ccc(C(c2c[nH]cc2-c2ccccc2Cl)n2ccnc2)cc1 (centres undefined) | 48.3 (≈ 137 µM) | 256 (≈ 728 µM) | 0 | 64 (≈ 182 µM) | 36.5 (≈ 104 µM) | 64 (≈ 182 µM) | 0 | 64 (≈ 182 µM) | 64 (≈ 182 µM) | 0 | 0 | 32 (≈ 91 µM) | 64 (≈ 182 µM) | 71.1 (≈ 202 µM) | 107 (≈ 305 µM) | 32 (≈ 91 µM) | –
Clc1ccc(-c2c[nH]cc2C(c2ccc(-n3cccc3)cc2)n2ccnc2)cc1 (centres undefined) | > 119 | 256 (≈ 642 µM) | 16 | 256 (≈ 642 µM) | > 121 | 256 (≈ 642 µM) | 40 | 64 (≈ 160 µM) | > 256 | 20 | 50 | 64 (≈ 160 µM) | 256 (≈ 642 µM) | > 156 | > 229 | 64 (≈ 160 µM) | –
Clc1ccc(C(c2c[nH]cc2-c2ccccc2)n2ccnc2)c(Cl)c1 (centres undefined) | > 256 | > 256 | 100 | > 256 | > 256 | > 256 | 100 | > 256 | > 256 | 100 | 100 | > 256 | > 256 | > 256 | > 256 | > 256 | –
Clc1ccc(C(c2c[nH]cc2-c2ccc(Cl)cc2Cl)n2ccnc2)cc1 (centres undefined) | > 6.8 | > 256 | 0 | 256 (≈ 636 µM) | > 66.4 | 64 (≈ 159 µM) | 0 | 16 (≈ 39.7 µM) | 16 (≈ 39.7 µM) | 5 | 40 | 4 (≈ 9.93 µM) | 256 (≈ 636 µM) | 13.7 (≈ 34 µM) | > 212 | 8 (≈ 19.9 µM) | –
c1ccc(-c2c[nH]cc2C(c2ccc(-n3cccc3)cc2)n2ccnc2)cc1 (centres undefined) | 30.4 (≈ 83.4 µM) | 64 (≈ 176 µM) | 0 | 32 (≈ 87.8 µM) | 37.3 (≈ 102 µM) | 32 (≈ 87.8 µM) | 0 | 32 (≈ 87.8 µM) | 64 (≈ 176 µM) | 0 | 0 | 16 (≈ 43.9 µM) | 32 (≈ 87.8 µM) | 40 (≈ 110 µM) | 42.1 (≈ 116 µM) | 16 (≈ 43.9 µM) | –
Clc1ccc(C(c2c[nH]cc2-c2ccccc2)n2ccnc2)cc1Cl (centres undefined) | 38.6 (≈ 105 µM) | 256 (≈ 695 µM) | 0 | 64 (≈ 174 µM) | 41.9 (≈ 114 µM) | 128 (≈ 348 µM) | 0 | 64 (≈ 174 µM) | 64 (≈ 174 µM) | 0 | 20 | 16 (≈ 43.4 µM) | 64 (≈ 174 µM) | 114 (≈ 311 µM) | 191 (≈ 519 µM) | 16 (≈ 43.4 µM) | –
O=[N+]([O-])c1ccc(C(c2c[nH]cc2-c2ccc(Cl)c(Cl)c2)n2ccnc2)cc1 (centres undefined) | > 283 | > 256 | 50 | > 256 | > 312 | > 256 | 100 | > 256 | > 256 | 50 | 100 | 256 (≈ 619 µM) | > 256 | > 256 | > 256 | 256 (≈ 619 µM) | –
Clc1ccc(C(c2c[nH]cc2-c2ccccc2Cl)n2ccnc2)cc1 (centres undefined) | 18.7 (≈ 50.8 µM) | 16 (≈ 43.4 µM) | 0 | 32 (≈ 86.9 µM) | 9.1 (≈ 24.7 µM) | 16 (≈ 43.4 µM) | 0 | 32 (≈ 86.9 µM) | 64 (≈ 174 µM) | 0 | 0 | – | 16 (≈ 43.4 µM) | 30.2 (≈ 82 µM) | 15 (≈ 40.7 µM) | 8 (≈ 21.7 µM) | 16 (≈ 43.4 µM)
Nc1ccc(C(c2c[nH]cc2-c2ccc(Cl)cc2)n2ccnc2)cc1 (centres undefined) | 42.8 (≈ 123 µM) | 128 (≈ 367 µM) | 0 | 128 (≈ 367 µM) | 98.2 (≈ 282 µM) | 128 (≈ 367 µM) | 0 | 82.5 (≈ 237 µM) | 82.5 (≈ 237 µM) | 0 | 0 | 32 (≈ 91.7 µM) | 128 (≈ 367 µM) | 82.5 (≈ 237 µM) | 184 (≈ 527 µM) | 64 (≈ 183 µM) | –
Clc1ccc(-c2c[nH]cc2C(c2ccc(Cl)cc2Cl)n2ccnc2)cc1 (centres undefined) | 3.94 (≈ 9.78 µM) | 128 (≈ 318 µM) | 0 | 8 (≈ 19.9 µM) | 3.6 (≈ 8.94 µM) | 32 (≈ 79.5 µM) | 0 | 16 (≈ 39.7 µM) | 32 (≈ 79.5 µM) | 0 | 0 | 2 (≈ 4.97 µM) | 8 (≈ 19.9 µM) | 14.4 (≈ 35.8 µM) | 61 (≈ 151 µM) | 2 (≈ 4.97 µM) | –
Cc1ccc(C(c2c[nH]cc2-c2ccc(Cl)cc2Cl)n2ccnc2)cc1 (centres undefined) | 7.9 (≈ 20.7 µM) | > 256 | 0 | 16 (≈ 41.9 µM) | 13.1 (≈ 34.3 µM) | 256 (≈ 670 µM) | 0 | 16 (≈ 41.9 µM) | 32 (≈ 83.7 µM) | 0 | 50 | 8 (≈ 20.9 µM) | 16 (≈ 41.9 µM) | 16.4 (≈ 42.9 µM) | > 224 | 8 (≈ 20.9 µM) | –
Clc1ccc(-c2c[nH]cc2C(c2ccc(-n3cccc3)cc2)n2ccnc2)c(Cl)c1 (centres undefined) | 33.7 (≈ 77.8 µM) | > 256 | 0 | 64 (≈ 148 µM) | > 256 | > 256 | 0 | 16 (≈ 36.9 µM) | 32 (≈ 73.8 µM) | 100 | 100 | 16 (≈ 36.9 µM) | > 256 | 19.5 (≈ 45 µM) | > 256 | > 256 | –
Clc1ccccc1-c1c[nH]cc1C(c1ccccc1)n1ccnc1 (centres undefined) | 43.8 (≈ 131 µM) | 64 (≈ 192 µM) | 0 | 64 (≈ 192 µM) | 19.2 (≈ 57.5 µM) | 32 (≈ 95.9 µM) | 0 | 64 (≈ 192 µM) | 32 (≈ 95.9 µM) | 0 | 0 | – | 32 (≈ 95.9 µM) | 78.2 (≈ 234 µM) | 22.6 (≈ 67.7 µM) | 16 (≈ 47.9 µM) | 32 (≈ 95.9 µM)
Clc1ccc(C(c2c[nH]cc2-c2ccccc2Cl)n2ccnc2)c(Cl)c1 (centres undefined) | 5.19 (≈ 12.9 µM) | 32 (≈ 79.5 µM) | 0 | 16 (≈ 39.7 µM) | 7.3 (≈ 18.1 µM) | 32 (≈ 79.5 µM) | 0 | 16 (≈ 39.7 µM) | 16 (≈ 39.7 µM) | 0 | 0 | 4 (≈ 9.93 µM) | 16 (≈ 39.7 µM) | 13.7 (≈ 34 µM) | 21.8 (≈ 54.1 µM) | 4 (≈ 9.93 µM) | –
Clc1ccc(-c2c[nH]cc2C(c2ccccc2)n2ccnc2)cc1Cl (centres undefined) | 7.2 (≈ 19.6 µM) | 16 (≈ 43.4 µM) | 0 | 16 (≈ 43.4 µM) | > 10.9 | 16 (≈ 43.4 µM) | 0 | 16 (≈ 43.4 µM) | 32 (≈ 86.9 µM) | 0 | 0 | 8 (≈ 21.7 µM) | 16 (≈ 43.4 µM) | 19.1 (≈ 51.9 µM) | 11.4 (≈ 31 µM) | 6 (≈ 16.3 µM) | –
Cc1ccc(C(c2c[nH]cc2-c2ccc(Cl)c(Cl)c2)n2ccnc2)cc1 (centres undefined) | 7.9 (≈ 20.7 µM) | 32 (≈ 83.7 µM) | 0 | 16 (≈ 41.9 µM) | 5.8 (≈ 15.2 µM) | 16 (≈ 41.9 µM) | 0 | 16 (≈ 41.9 µM) | 16 (≈ 41.9 µM) | 0 | 0 | 4 (≈ 10.5 µM) | 16 (≈ 41.9 µM) | 14.2 (≈ 37.1 µM) | 17.5 (≈ 45.8 µM) | 4 (≈ 10.5 µM) | –
Fc1ccc(C(c2c[nH]cc2-c2ccc(Cl)c(Cl)c2)n2ccnc2)cc1 (centres undefined) | 7.2 (≈ 18.6 µM) | 32 (≈ 82.8 µM) | 0 | 16 (≈ 41.4 µM) | 7.2 (≈ 18.6 µM) | 32 (≈ 82.8 µM) | 0 | 16 (≈ 41.4 µM) | 32 (≈ 82.8 µM) | 0 | 0 | 4 (≈ 10.4 µM) | 16 (≈ 41.4 µM) | 16.4 (≈ 42.5 µM) | 26.6 (≈ 68.9 µM) | 4 (≈ 10.4 µM) | –
Clc1ccc(-c2c[nH]cc2C(c2ccc(-n3cccc3)cc2)n2ccnc2)cc1Cl (centres undefined) | > 264 | > 256 | 40 | > 256 | > 289 | > 256 | 100 | > 256 | > 256 | 50 | 80 | 128 (≈ 295 µM) | > 256 | > 256 | > 438 | 128 (≈ 295 µM) | –
O=[N+]([O-])c1ccc(C(c2c[nH]cc2-c2ccc(Cl)cc2)n2ccnc2)cc1 (centres undefined) | > 60.1 | 64 (≈ 169 µM) | 0 | 32 (≈ 84.5 µM) | > 91.8 | 32 (≈ 84.5 µM) | 60 | > 256 | > 256 | 0 | 10 | 16 (≈ 42.2 µM) | 64 (≈ 169 µM) | > 355 | > 91.8 | 32 (≈ 84.5 µM) | –
